From patent US20190010167A1, “INHIBITORS OF THE MENIN-MLL INTERACTION” (Vitae Pharmaceuticals, Inc., priority 2015, published 2019) come the findings set out here.

Test [1] addresses T1, wild-type menin / MLL-AF9 fusion protein (Homo sapiens, UniProt O00255).
T1 construct: made in house; host or cells: E. coli (menin); HEK293 cleared lysate (MLL-AF9-FLAG)
T1 sequence (O00255 1-610): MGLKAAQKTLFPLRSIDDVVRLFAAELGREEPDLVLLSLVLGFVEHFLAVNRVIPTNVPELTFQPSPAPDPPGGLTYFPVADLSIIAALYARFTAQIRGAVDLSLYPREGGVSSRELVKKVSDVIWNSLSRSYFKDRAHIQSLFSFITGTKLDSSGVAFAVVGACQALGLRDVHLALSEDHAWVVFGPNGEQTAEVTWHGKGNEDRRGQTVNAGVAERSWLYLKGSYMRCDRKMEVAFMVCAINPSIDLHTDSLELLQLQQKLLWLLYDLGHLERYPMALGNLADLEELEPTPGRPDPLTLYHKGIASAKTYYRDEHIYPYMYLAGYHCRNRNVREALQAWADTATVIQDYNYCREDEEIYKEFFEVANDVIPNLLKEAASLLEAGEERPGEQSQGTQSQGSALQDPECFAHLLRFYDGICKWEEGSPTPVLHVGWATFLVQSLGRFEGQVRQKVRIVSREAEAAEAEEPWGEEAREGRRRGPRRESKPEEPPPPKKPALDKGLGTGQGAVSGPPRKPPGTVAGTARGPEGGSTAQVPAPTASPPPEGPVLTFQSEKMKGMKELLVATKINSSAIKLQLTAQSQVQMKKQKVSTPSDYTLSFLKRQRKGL
Nature of the test: AlphaLISA menin/MLL binding assay, wild-type menin (Assay 1). The following applies: biotinylated wild-type menin 5 nM, MLL-AF9-FLAG lysate. In a few lines: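 Biotinylated wild-type or mutated menin (5 nM, E. coli-expressed) was preincubated 30 min at RT with compound and HEK293 lysate containing MLL1-1,396–AF9 1-92–FLAG. Buffer was 50 mM Tris-HCl pH 7.4, 5% DMSO, 50 mM NaCl, 0.01% BSA, 1 mM DTT. Anti-FLAG acceptor and streptavidin donor beads (10 μg/mL each) were then added for 60 min. IC50 came from a four-parameter fit of the Alpha signal inhibition.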

Test [2] concerns the target T2, menin/MLL (Gal4-Menin and MLL1-46-VP16) in HEK293 cells (Homo sapiens, UniProt O00255).
T2 construct: expressed in transfected cells; host or cells: HEK293 (ATCC)
Nature of the test: Mammalian cellular two-hybrid assay in HEK293 cells (Assay 2, cell assay). It is filed as cell-based. Particulars: Gal4-Menin/MLL1-46-VP16 two-hybrid, NanoLuc luciferase reporter, 16-18 h. The procedure:
Potencies of inhibitor compounds against menin/MLL were tested in a mammalian cellular two-hybrid assay system. HEK293 cells (American Type Culture Collection (ATCC); Manassas, Va.) were co-transfected with three plasmids: one encoding Gal4-Menin (200 ng per 10^6 cells), another encoding MLL1-46-VP16 (100 ng per 10^6 cells), and a reporter plasmid pNL3.3-4×UAS (500 ng per 10^6 cells) encoding secreted NanoLuc® luciferase (Promega) with the upstream 4×UAS repeats for Gal4 binding. Transfection was performed in Opti-MEM® media using Lipofectamine® LTX with Plus™ Reagent (ThermoFisher Scientific) according to manufacturer's protocol. Cells were incubated with transfection reagents at 37° C. 5% CO2 for 5-6 h, harvested by trypsinization and centrifugation at 300×g for 5 min and resuspended in Gibco® DMEM media (phenol red-free, no antibiotics) containing 10% delipidated fetal bovine serum (FBS) (ThermoFisher Scientific). Concentration of cells in the media was adjusted to 3.5×10^5 cells/ml, and 100 μl of the cell suspension was dispensed into each well of 96-well Costar™ black clear bottom cell culture plates (Fisher Scientific). Tested compounds were added as 100 μL of 2× solutions in the media. Final concentration of DMSO was 0.1% in all wells. The cells were incubated with tested compounds at 37° C. 5% CO2 for 16-18 h. At the end of the incubation, 40 μL of the conditioned media from each well was transferred into each well of 96-well Costar™ black half-area plates (Fisher Scientific), to which 40 μl of 2× reconstituted NanoGlo® luciferase assay reagent (Promega) was added and thoroughly mixed on a microshaker for 2-3 min. Remaining media in the culture plates was removed by emptying the wells and blotting the plates on filter paper. The cells were lysed with 1× CellTiter-Glo® Luminescent Cell Viability Assay reagent (Promega) for assessing toxicity of the tested compounds. Both, Nano-Glo® and CellTiter-Glo® luminescence intensities were measured on EnVision® multilabel plate reader (PerkinElmer). Percent inhibition values were calculated based on Nano-Glo® luciferase activity observed with the tested compounds vs. DMSO control and commercially available menin inhibitor MI-2-2 (4-(4-(5,5-Dimethyl-4,5-dihydrothiazol-2-yl)piperazin-1-yl)-6-(2,2,2-trifluoroethyl)thieno[2,3-d]pyrimidine) (EMD Millipore, Cat. No. 444825) incubated with cells at 5 μM. These percent inhibition values were regressed against compound concentrations in the assay using non-linear 4-parameter logit curve fitting (XLFit, IDBS). Half maximal inhibitory concentrations (IC50) were calculated as the parameters of the fit corresponding to the inflection points on semi-logarithmic dose-response curves.

T2 sequence (P04386 1-147 partner limits assumed, species assumed, one chain of several): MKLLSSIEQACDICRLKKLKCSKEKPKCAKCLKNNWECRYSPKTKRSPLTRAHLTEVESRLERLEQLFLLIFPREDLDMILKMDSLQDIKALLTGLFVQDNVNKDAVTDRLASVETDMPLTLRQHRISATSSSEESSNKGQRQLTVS

On to `O=c1[nH]c2ccc(CN3CCC4(CCN(c5ncnc6sc(CC(F)(F)F)cc56)C4)C3)cc2[nH]1` (stereo not drawn) [Example 39, 5-((7-(6-(2,2,2-trifluoroethyl)thieno[2,3-d]pyrimidin-4-yl)-2,7-diazaspiro[4.4]nonan-2-yl)methyl)-1H-benzo[d]imidazol-2(3H)-one], for which the IC50 in test [1] and in test [2] was less than 100 nM throughout.

For the molecule `O=c1[nH]c2ccc(CN3CCC4(CCN(c5ncnc6sc(CC(F)(F)F)cc56)C4)C3)cc2o1` (stereo not drawn) [Example 40, 6-((7-(6-(2,2,2-trifluoroethyl)thieno[2,3-d]pyrimidin-4-yl)-2,7-diazaspiro[4.4]nonan-2-yl)methyl)benzo[d]oxazol-2(3H)-one], the IC50 in test [1] is less than 100 nM; in test [2] it was 100 to 1000 nM.

Take `Cn1c(=O)[nH]c2cc(CN3CCC4(CCN(c5ncnc6sc(CC(F)(F)F)cc56)C4)C3)ccc21` (stereo not drawn) [Example 41, 1-methyl-5-((7-(6-(2,2,2-trifluoroethyl)thieno[2,3-d]pyrimidin-4-yl)-2,7-diazaspiro[4.4]nonan-2-yl)methyl)-1H-benzoldlimidazol-2(3H)-one]: the IC50 in test [1] and in test [2] was less than 100 nM in each case.

Regarding `CC(=O)Nc1ccc(CN2CCC3(CCN(c4ncnc5sc(CC(F)(F)F)cc45)C3)C2)c(C)c1` (stereo not drawn) [Example 42, N-(3-methyl-4-((7-(6-(2,2,2-trifluoroethyl)thieno[2,3-d]pyrimidin-4-yl)-2,7-diazaspiro[4.4]nonan-2-yl)methyl)phenyl)acetamide], the IC50 in test [1] is less than 100 nM; in test [2], 100 to 1000 nM.

Consider `FC(F)(F)Cc1cc2c(N3CCC4(CCN(Cc5ccccc5)C4)C3)ncnc2s1` (stereo not drawn) [Example 43, 4-(7-benzyl-2,7-diazaspiro[4.4]nonan-2-yl)-6-(2,2,2-trifluoroethyl)thieno[2,3-d]pyrimidine], for which the figures for the IC50 in test [1] and in test [2] were less than 100 nM and 100 to 1000 nM, respectively.

Consider `CC(=O)Nc1ccc(CN2CCC3(CCN(c4ncnc5sc(CC(F)(F)F)cc45)C3)C2)c(Cl)c1` (stereo not drawn) [Example 44, N-(3-chloro-4-((7-(6-(2,2,2-trifluoroethyl)thieno[2,3-d]pyrimidin-4-yl)-2,7-diazaspiro[4.4]nonan-2-yl)methyl)phenyl)acetamide], for which the half-inhibitory concentration (IC50) in test [1] was less than 100 nM; in test [2], 100 to 1000 nM.

On to `CC(=O)Nc1ccc(CN2CCC3(CCN(c4ncnc5sc(CC(F)(F)F)cc45)C3)C2)c(F)c1` (stereo not drawn) [Example 45, N-(3-fluoro-4-((7-(6-(2,2,2-trifluoroethyl)thieno[2,3-d]pyrimidin-4-yl)-2,7-diazaspiro[4.4]nonan-2-yl)methyl)phenyl)acetamide], for which the 50% inhibitory concentration (IC50) is less than 100 nM in test [1] and 100 to 1000 nM in test [2].

For the molecule `COC(=O)N[C@H]1CC[C@H](CN2CCC3(CCN(c4ncnc5sc(CC(F)(F)F)cc45)C3)C2)CC1` (stereo partly drawn) [Example 46, Methyl ((1r,4r)-4-((7-(6-(2,2,2-trifluoroethyl)thieno[2,3-d]pyrimidin-4-yl)-2,7-diazaspiro[4.4]nonan-2-yl)methyl)cyclohexyl)carbamate], the IC50 was less than 100 nM in test [1] and 100 to 1000 nM in test [2].

Take `CS(=O)(=O)N[C@H]1CC[C@H](CN2CCC3(CCN(c4ncnc5sc(CC(F)(F)F)cc45)C3)C2)CC1` (stereo partly drawn) [Example 48, N-((1r,4r)-4-((7-(6-(2,2,2-trifluoroethyl)thieno[2,3-d]pyrimidin-4-yl)-2,7-diazaspiro[4.4]nonan-2-yl)methyl)cyclohexyl)methanesulfonamide]: the half-inhibitory concentration (IC50) in test [1] was less than 100 nM; in test [2], 100 to 1000 nM.

Turning to `CS(=O)(=O)N[C@H]1CC[C@@H](CN2CCC3(CCN(c4ncnc5sc(CC(F)(F)F)cc45)C3)C2)CC1` (stereo partly drawn) [Example 49, N-((1s,4s)-4-((7-(6-(2,2,2-trifluoroethyl)thieno[2,3-d]pyrimidin-4-yl)-2,7-diazaspiro[4.4]nonan-2-yl)methyl)cyclohexyl)methanesulfonamide], the figures for the concentration for half-maximal inhibition (IC50) in test [1] and in test [2] were less than 100 nM and 100 to 1000 nM, respectively.

`CC(=O)Nc1cccc(CN2CCC3(CCN(c4ncnc5sc(CC(F)(F)F)cc45)C3)C2)c1` (stereo not drawn) [Example 52, N-(3-((7-(6-(2,2,2-trifluoroethyl)thieno[2,3-d]pyrimidin-4-yl)-2,7-diazaspiro[4.4]nonan-2-yl)methyl)phenyl)acetamide]: the IC50 in test [1] was less than 100 nM; in test [2], 100 to 1000 nM.

For `Cc1cc(NS(C)(=O)=O)ccc1CN1CCC2(CCN(c3ncnc4sc(CC(F)(F)F)cc34)C2)C1` (stereo not drawn) [Example 54, N-(3-methyl-4-((7-(6-(2,2,2-trifluoroethyl)thieno[2,3-d]pyrimidin-4-yl)-2,7-diazaspiro[4.4]nonan-2-yl)methyl)phenyl)methanesulfonamide], the concentration for half-maximal inhibition (IC50) in test [1] is less than 100 nM; in test [2] it was 100 to 1000 nM.

Turning to `CC(C)(N)C(=O)N1CCC2(CCN(c3ncnc4sc(CC(F)(F)F)cc34)C2)C1` (stereo not drawn) [Example 58, 2-Amino-2-methyl-1-(7-(6-(2,2,2-trifluoroethyl)thieno[2,3-d]pyrimidin-4-yl)-2,7-diazaspiro[4.4]nonan-2-yl)propan-1-one], the IC50 in test [1] and in test [2] was 100 to 1000 nM in each case.

Turning to `CS(=O)(=O)Cc1ccc(CC(=O)N2CC3(C2)CN(c2ncnc4sc(CC(F)(F)F)cc24)C3)cc1` [Example 61, 2-(4-((methylsulfonyl)methyl)phenyl)-1-(6-(6-(2,2,2-trifluoroethyl)thieno[2,3-d]pyrimidin-4-yl)-2,6-diazaspiro[3.3]heptan-2-yl)ethan-1-one], the IC50 in test [1] is 100 to 1000 nM; in test [2], not below 1000 nM.

On to `FC(F)(F)Cc1cc2c(N3CC4(CN(CC5CCCC(F)(F)C5)C4)C3)ncnc2s1` (stereo not drawn) [Example 63, 4-(6-((3,3-difluorocyclohexyl)methyl)-2,6-diazaspiro[3.3]heptan-2-yl)-6-(2,2,2-trifluoroethyl)thieno[2,3-d]pyrimidine], for which the IC50 is less than 100 nM in test [1] and 100 to 1000 nM in test [2].

Consider `CC1(C)CCCC(CN2CC3(C2)CN(c2ncnc4sc(CC(F)(F)F)cc24)C3)C1` (stereo not drawn) [Example 65, 4-(6-((3,3-dimethylcyclohexyl)methyl)-2,6-diazaspiro[3.3]heptan-2-yl)-6-(2,2,2-trifluoroethyl)thieno[2,3-d]pyrimidine], for which the half-inhibitory concentration (IC50) in test [1] is less than 100 nM; in test [2], 100 to 1000 nM.

Turning to `FC(F)(F)Cc1cc2c(N3CC4(CN(CC5CCOCC5)C4)C3)ncnc2s1` [Example 66, 4-(6-((tetrahydro-2H-pyran-4-yl)methyl)-2,6-diazaspiro[3.3]heptan-2-yl)-6-(2,2,2-trifluoroethyl)thieno[2,3-d]pyrimidine], the IC50 in test [1] and in test [2] was 100 to 1000 nM in each case.

`FC(F)(F)Cc1cc2c(N3CC4(CN(CC5CCCC5)C4)C3)ncnc2s1` [Example 68, 4-(6-(cyclopentylmethyl)-2,6-diazaspiro[3.3]heptan-2-yl)-6-(2,2,2-trifluoroethyl)thieno[2,3-d]pyrimidine]: the results for the IC50 in test [1] and in test [2] were less than 100 nM and 100 to 1000 nM, respectively.
